Test results from patent publication US12410124B2 (priority 2019, dated 2025).

Experiments:
Type in all cases: in vivo
HO-1 = assay: Midbrain HO-1 expression in MPTP Parkinson's disease model mouse (western blot); conditions: midbrain, MPTP Parkinson's disease model mouse, western blot
Experimental: (§1) Neurotoxins can be used to establish PD animal models. Currently, 1-methyl-4-phenyl-1,2,3,6-tetrahydropyridine (MPTP) is the sole synthetic toxin which is recognized to induce PD symptoms in human and non-human primates and in mice. Using MPTP subacute modeling method, C57BL/6J male mice were intraperitoneally injected with MPTP 30 mg/kg, once a day for 5 consecutive days. The experiment animals were divided into blank control group, MPTP model group, and compound treatment group. For the […] compound treatment group, the compound was administrated by gavage for 21 consecutive days after the completion of modeling; for the MPTP model group, the normal saline was administrated by gavage for 21 consecutive days after the completion of modeling; and for the blank control group, the normal saline was first intraperitoneally injected for 5 days, and then administrated by gavage for 21 days.
(§2) Oxidative stress is an important pathogenic mechanism of PD. Dopaminergic neurons are more sensitive to oxidative stress and are more susceptible to oxidative stress damage. Heme oxygenase (HO-1), a phase II enzyme, is also a well-known antioxidase. It plays an important protective role by catalyzing the conversion of free radicals into non-toxic products and increasing their water solubility to facilitate the elimination of free radicals, and maintain the redox balance in the body. It plays an important role in the process of protecting cells against oxidative stress damage. The activation of p38 protein phosphorylation has a negative regulatory effect on phase II enzymes. […] Using HO-1 as an indicator, the inhibitory effect of the target compounds on MPTP-induced oxidative stress damage in PD mice can be investigated.
(§3) HO-1 is expressed in astrocytes, microglial cells, and neurons. The total proteins of the midbrain tissue of mice in each experiment group were extracted, to determine the expression of phase II enzyme HO-1 in the midbrain of mice by western blot using GAPDH as the internal reference. The experiment included blank control group, MPTP model group, positive control group (caffeic acid phenethyl ester, CAPE), prototype control group (styryl sulfone compounds 3B, 3C, 3D, and 3G, whose structures are shown as above), and target compound group.

substantia nigra pp38 = assay: Substantia nigra pp38 protein expression in MPTP Parkinson's disease model mouse (immunofluorescence); conditions: percentage of mean intensity of blank control group, gavage 21 days after MPTP modeling
Experimental: as §1
The p38 mitogen-activated protein kinase (p38 MAPK) is expressed in both neurons and glial cells, and is the intersection point of neuron-glial cell network information regulations. The activation of p38 signaling pathway is an important initiator of neuronal degeneration, which continuously induces the apoptosis of dopaminergic neurons in multiple ways. It has become a research hotspot for the treatment of PD. Studies have shown that the protective mechanism of CAPE against the death of primary cultured cerebellar granule neurons induced by glutamate lies in inhibiting the activation of p38 phosphorylation and in turn inhibiting the activation of the caspase 3 apoptotic pathway to prevent neuronal apoptosis. Therefore, the MPTP-induced PD mouse model can be used to investigate the inhibitory effect of the target compounds on the activation of p38 phosphorylation on the overall animal level.
(§4) Half of experiment mice in each group were taken to separate the midbrain after perfusion and fixation. The tissue was trimmed, and the substantia nigra-striatum area was taken to prepare paraffin sections. The double immunofluorescence staining for TH and phosphorylated p38 was performed to observe the coexpression of TH and phosphorylated p38, for the statistics of the change in the phosphorylated p38 protein expression. The experiment included blank control group, MPTP model group, positive control group (caffeic acid phenethyl ester, CAPE), prototype control group (styryl sulfone compounds 3B, 3C, 3D, and 3G, whose structures are shown as above), and target compound group.

hippocampus CD11b = assay: Number of hippocampus microglial cells with CD11b positive expression in MPTP Parkinson's disease model mouse (immunohistochemistry); conditions: hippocampus, MPTP Parkinson's disease model mouse, immunohistochemistry
Experimental: as §1
(§5) Neuron-glial cell network homeostasis disorder is an important factor for the selective and progressive death of substantia nigra dopaminergic neurons in PD. In the neurotoxic effect of MPTP, the excessive activations of microglial cells and astrocytes produce a variety of inflammatory cytokines and reactive oxygen species (ROS). These inflammatory factors and ROS amplify their respective toxicities and mediate malignant feedback loop, causing a cascade inflammation response and aggravating the pathological process of PD. CD11b and GFAP are the marker proteins for activations of microglial cells and astrocytes, respectively. Therefore, the effect of the target compounds on the activations of the microglial cells and astrocytes in the substantia nigra, hippocampus, and midbrain areas of MPTP-induced PD mice can be investigated, to explore the mechanism of the anti-PD effect of the target compounds by inhibiting the neuroinflammation.
as §4, with “hippocampus” for “substantia nigra-striatum”, “CD11b immunohistochemical” for “double immunofluorescence”, “staining” for “staining for TH and phosphorylated p38”, “performed” for “performed to observe the coexpression of TH and phosphorylated p38,”, “number of microglial cells with CD11b positive” for “phosphorylated p38 protein”

GCLC = assay: Midbrain GCLC expression in MPTP Parkinson's disease model mouse (western blot); conditions: midbrain, MPTP Parkinson's disease model mouse, western blot
Experimental: as §1
as §2, with “Glutathione (GSH) is an important antioxidant substance in the cell, and glutamate cysteine ligase (GCL) is the rate-limiting enzyme for GSH synthesis, which is composed of catalytic subunit (GCLC) and regulatory subunit (GCLM). The increase of GCLC expression can promote the synthesis of GSH and enhance the ability of tissue cells against oxidative stress. GCL,” for “Heme oxygenase (HO-1),”, “enzyme,” for “enzyme, is also a well-known antioxidase. It”, “GCLC” for “HO-1”
as §3, with “GCLC” for “HO-1”, “3D),” for “3D,”

hippocampus GFAP = assay: Number of hippocampus astrocytes with GFAP positive expression in MPTP Parkinson's disease model mouse (immunohistochemistry); conditions: hippocampus, MPTP Parkinson's disease model mouse, immunohistochemistry
Experimental: as §1, §5
as §4, with “hippocampus” for “substantia nigra-striatum”, “GFAP immunohistochemical” for “double immunofluorescence”, “staining” for “staining for TH and phosphorylated p38”, “performed” for “performed to observe the coexpression of TH and phosphorylated p38,”, “number of astrocytes with GFAP positive” for “phosphorylated p38 protein”

Row | SMILES | Expression (HO-1/GAPDH) (HO-1) | Expression (Immunofluorescence intensity %) (substantia nigra pp38) | Positive cell number (microglial cells with CD11b positive expression) (hippocampus CD11b) | Expression (GCLC/GAPDH) (GCLC) | Positive cell number (astrocytes with GFAP positive expression) (hippocampus GFAP)
1 | O=S(=O)(/C=C/c1ccc(O)c(O)c1)Cc1ccc(Cl)cc1 [Compound 3D, (E)-4-{2-[(4-chlorophenyl)mesyl]ethenyl}benzene-1,2-diol, reference compound] | 1.03 ± 0.20 | 114.68 ± 21.42% | 18 ± 3 | 0.53 ± 0.04 | 106 ± 6
2 | O=S(=O)(/C=C/c1ccc(O)c(O)c1)CCCc1ccccc1 [Compound 3C, (E)-4-{2-[(3-phenylpropyl)sulfonyl]ethenyl}benzene-1,2-diol, reference compound] | 0.44 ± 0.05 | 138.79 ± 27.44% | 20 ± 3 | 0.34 ± 0.05 | 147 ± 4
3 | C=CCOc1ccc(C/C=C/S(=O)(=O)/C=C/c2ccc(OC(C)=O)c(OC(=O)N(CC=C)CC=C)c2)cc1 [Compound K1-4, 4-{(E)-2-[(E)-3-(4-allyloxyphenyl)prop-1-en-1-yl]sulfonylethenyl}-2-(N,N-diallylcarbamoyloxy)phenyl acetate] | 1.02 ± 0.09 | 100.80 ± 5.48% | 13 ± 2 | 1.10 ± 0.07 | 71 ± 4
4 | CCN(C)C(=O)Oc1ccc(/C=C/S(=O)(=O)CC(c2ccc(-c3ccc(OC)c(OC)c3)cc2)[N+](=O)[O-])cc1OC(=O)N(C)CC (stereo not drawn) [Compound M1-1, (E)-4-{2-[2-(3′,4′-dimethoxy-[1,1′-biphenyl]-4-yl)-2-nitroethylsulfonyl]ethenyl}-1,2-phenylenebis(N-ethyl-N-methylcarbamate)] | 1.29 ± 0.07 | 98.35 ± 6.93% | 5 ± 1 | 1.30 ± 0.09 | 51 ± 5
5 | COc1cc(/C=C/S(=O)(=O)Cc2cc(OC)c(OC)c(OC)c2)ccc1OC(=O)N(c1ccccc1)c1ccccc1 [Compound K3-3, (E)-2-methoxy-4-{2-[(3,4,5-trimethoxyphenyl)mesyl]ethenyl}-phenyl-N,N-diphenylcarbamate] | 0.69 ± 0.07 | 111.17 ± 9.62% | 18 ± 1 | 0.86 ± 0.04 | 69 ± 3
6 | Cc1ccc(S(=O)(=O)Oc2ccc(CS(=O)(=O)/C=C/c3ccc(OS(=O)(=O)c4ccc(C)cc4)c(OC(=O)N(C)S(=O)(=O)c4ccc(C)cc4)c3)cc2)cc1 [Compound S6-6, (E)-2-(N-methyl-N-p-tosylcarbamoyloxy)-4-{2-[(4-p-tosyloxyphenyl)mesyl]ethenyl}phenyl p-toluenesulfonate] | 1.08 ± 0.11 | 105.30 ± 10.08% | 9 ± 2 | 1.29 ± 0.08 | 58 ± 2
7 | CCOC(CS(=O)(=O)/C=C/c1ccc(OC(C)=O)c(OC(=O)Nc2ccc(NC)cc2)c1)C(OCC)c1ccc(OCc2ccccc2)c(O)c1 (stereo not drawn) [Compound H2-4, (E)-4-{2-[3-(4-benzyloxy-3-hydroxyphenyl)-2,3-diethoxypropyl]sulfonylethenyl}-2-[N-(4-methylaminophenyl)carbamoyloxy]phenyl acetate] | 0.95 ± 0.10 | 103.17 ± 12.58% | 7 ± 1 | 1.21 ± 0.08 | 61 ± 5
8 | COCCN(C)C(=O)Oc1cc(/C=C/S(=O)(=O)CCc2cccc(-c3ccc(C)o3)c2)ccc1OC(C)=O [Compound J1-4, (E)-2-[N-(2-methoxyethyl)-N-methylcarbamoyloxy]-4-{2-[3-(5-methylfur-2-yl)phenylethylsulfonyl]ethenyl}phenyl acetate] | 1.25 ± 0.06 | 100.62 ± 13.35% | 10 ± 2 | 1.24 ± 0.10 | 79 ± 2
9 | COc1ccc(CC(=O)Oc2ccc(C(N)CS(=O)(=O)/C=C/c3ccc(OC(C)(C)C)c(OC(=O)N(C)c4ccccc4)c3)cc2)cc1 (stereo not drawn) [Compound P1-3, (E)-4-{1-amino-2-[4-t-butoxy-3-(N-methyl-N-phenylcarbamoyloxy)styrylsulfonyl]ethyl}phenyl-2-(4-methoxyphenyl)acetate] | 0.77 ± 0.10 | 81.90 ± 9.52% | 16 ± 2 | 0.91 ± 0.11 | 74 ± 3
